Reference: US5399691A, “Substituted benzoylurea derivatives or their salts” (Ishihara Sangyo Kaisha Ltd., priority 1991, dated 1995)
In brackets after ≈: the same amount, converted by molar mass. Counter-ions that a name gives are not always drawn. Like-named read-outs stand apart in the source and are kept apart here.

Legend:
P-388 leukemia = assay: Antitumor activity against P-388 leukemia, increase life span (Test Example 1); format: in vivo, BDF1 mouse (murine); conditions: days 1, 5 and 9; for ILS at 6.25 mg/kg / ILS at 12.5 mg/kg / ILS at 25 mg/kg: Mus musculus
Text: The compounds of the present invention are effective against experimental murine tumors such as P-388 leukemia, L-1210 leukemia, B-16 melanoma, M-5076 sarcoma, Colon 38, Colon 26 and Lewis lung carcinoma. On the other hand, certain in vivo test systems and protocols have been developed by National Cancer Institute for testing compounds to determine the effectiveness of test compounds as antineoplastic agents. These have been reported in "Cancer Chemotherapy Reports", Part III, Vol. 3, No. 2 (1972) written by Deran, Greenberg, MacDonald, Schumacher and Abott. P-388 leukemia is the most standard experimental murine tumor, and it is known that many of drugs effective against human tumor are also effective against this leukemia. Generally, the effectiveness of a drug for these experimental murine tumors is evaluated by the extended median survival time of a test mouse group to which a test drug is administered on the basis of the median survival time of a control mouse group to which no drug is administered. If the extended median survival time is at least 25-30% longer, the administered drug is determined to be effective.
1×10^6 of P-388 leukemia cells per mouse were intraperitoneally transplanted into BDF1 mouse. Each formulation was intraperitoneally or intravenously administered on the 1st, 5th and 9th days after the transplantation.
The increase life span of each group was determined by comparing the median survival time (days) of a test group to which a test drug is administered and the median survival time (days) of a control group to which physiological saline was administered at the same part as in the case of the test group. Among the tested drug formulations, the compounds of the present invention were formulated in accordance with the below-mentioned Formulation Example 1, and the comparative compounds as shown in Table 8 were formulated in accordance with the below-mentioned Formulation Example 2.
(Note) * Increase life span is calculated by the following equation:
Increase life span % (ILS)=(a/b×100)-100 a: Median survival days of test group of drug administration b: Median survival days of control group of physiological saline administration 0.125 part by weight of the above mentioned Compound No. 1 was dissolved in 5 parts by weight of N,N-dimethylacetamide and 5 parts by weight of polyoxyethylene sorbitan monooleate, and 90 parts by weight of physiological saline was added thereto to form a solution formulation in an agate mortar.
0.125 part by weight of Comparative Compound No. 1 was dissolved in 5 parts by weight of N,N-dimethylacetamide and 5 parts by weight of polyoxyethylene sorbitan monooleate, and 90 parts by weight of physiological saline was added thereto to form a suspension formulation in an agate mortar.

Acute toxicity = format: in vivo; conditions: mouse, in vivo; BDF1 mice, intravenous, Formulation Example 1; read-out: acute toxicity value (LD 50)
Experimental: (§1) None of BDF1 mice were dead by intravenously administering each formulation of Compound Nos. 1 to 9, 20, 49 and 53 of the present invention prepared in accordance with Formulation Example 1 in an amount of 25 mg/kg mouse (on the basis of compound).
(§2) 0.125 part by weight of the above mentioned Compound No. 1 was dissolved in 5 parts by weight of N,N-dimethylacetamide and 5 parts by weight of polyoxyethylene sorbitan monooleate, and 90 parts by weight of physiological saline was added thereto to form a solution formulation in an agate mortar.

[1] = Solubility in water-soluble solvent by HPLC (Test Example 2); format: physicochemical
Experimental: About 2 mg of each of the compounds of the present invention shown in the following Table 7 was accurately weighed, and was completely dissolved in 2 ml of N,N-dimethylacetamide. The content was then transferred into a 10 ml-measuring flask, and its volume was made constant with acetonitrile. 3 ml of the resultant solution was placed in a 50 ml-measuring flask, and its volume was adjusted constant with acetonitrile to prepare a standard solution. Next, about 2 mg of each of the compounds of the present invention was weighed, and was placed in an agate mortar. Thereafter, 1.5 ml of a test liquid (water-soluble solvent) was added thereto, and the content was mixed for 5 minutes. A suspension thus obtained, was transferred into a 1.5 ml-microtube, and was centrifuged at 15,000 r.p.m. for 10 minutes. The supernatant fluid was placed in a 1 ml-microtube, and was centrifuged again under the same conditions. 0.1 ml of the supernatant fluid thus obtained was diluted with 0.9 ml of acetonitrile to prepare a measuring liquid. The above standard solution and the measuring liquid were analyzed by high pressure liquid chromatography (HPLC), and their solubilities were measured by absolute calibration curve method.
Column: Nucleosil 5 C18, diameter=4.6 mm, length=250 mm
Mobile phase: acetonitrile/water/acetic acid=60/40/0.1
Detection: UV 265 nm, Column temperature: 40° C.,
Sensitivity: 0.005 AUFS or 0.16 AUFS,

BDF1 mice = assay: Acute toxicity; format: in vivo; conditions: intravenous, 25 mg/kg mouse, Formulation Example 1
Experimental: as §1, §2

[2] = 10% peg 400 aqueous, organic solvent or mixture, 10% polyethylene glycol #400 aqueous solution, read-out: Solubility, test solution C
[3] = distilled water, water, read-out: Solubility, test solution A
[4] = physiological saline, read-out: Solubility, test solution B
[5] = P388, ip, intraperitoneal, 12.5 mg/kg
[6] = P388, ip, intraperitoneal, 25 mg/kg

Row | Compound | ILS at 6.25 mg/kg (P-388 leukemia; P388, intravenous) [%] | ILS at 12.5 mg/kg (P-388 leukemia; P388, intravenous, 12.5 mg/kg) [%] | ILS at 25 mg/kg (P-388 leukemia; P388, intravenous, 25 mg/kg) [%] | LD50 (Acute toxicity) [mg/kg] | solubility [1, 2] [µg/mL] | solubility [1, 3] [µg/mL] | solubility [1, 4] [µg/mL] | ILS at 6.25 mg/kg (P-388 leukemia; P388, ip, intraperitoneal) [%] | ILS at 12.5 mg/kg (P-388 leukemia; [5]) [%] | Increase life span (ILS %) (P-388 leukemia; intraperitoneal, 25 mg/kg) | ILS at 25 mg/kg (P-388 leukemia; [6]) [%] | Increase life span (ILS %) (P-388 leukemia; intraperitoneal, 12.5 mg/kg) | BDF1 mice dead (BDF1 mice)
1 | NCC(=O)Nc1ccccc1C(=O)NC(=O)Nc1ccc(Oc2ncc(Br)cn2)c(Cl)c1 [Compound No. 1, N-[4-(5-bromo-2-pyrimidinyloxy)-3-chlorophenyl]-N'-(2-glycylamino)benzoylurea hydrochloride] | 12 | 79 | 219 | ≥ 25 | 2100 | 1200 | 50 |  |  |  |  |  | 
2 | CN(C)CC(=O)Nc1ccccc1C(=O)NC(=O)Nc1ccc(Oc2ncc(Br)cn2)c(Cl)c1 [Compound No. 2, N-[4-(5-bromo-2-pyrimidinyloxy)-3-chlorophenyl]-N'-[2-(N,N-dimethylglycyl)amino]benzoylurea hydrochloride] | 24 | 51 | 143 | ≥ 25 | > 4000 | 2500 | 550 |  |  |  |  |  | 
3 | C[C@H](N)C(=O)Nc1ccccc1C(=O)NC(=O)Nc1ccc(Oc2ncc(Br)cn2)c(Cl)c1 [Compound No. 3] | 10 | 70 | 134 | ≥ 25 | 3700 (≈ 6.93 mM) | 2800 (≈ 5.25 mM) | 320 (≈ 0.6 mM) |  |  |  |  |  | 
4 | C[C@@H](N)C(=O)Nc1ccccc1C(=O)NC(=O)Nc1ccc(Oc2ncc(Br)cn2)c(Cl)c1 [Compound No. 4] |  | 19 | 95 | ≥ 25 | 2700 (≈ 5.06 mM) | 2000 (≈ 3.75 mM) | 140 (≈ 0.262 mM) |  |  |  |  |  | 
5 | CSCC[C@H](N)C(=O)Nc1ccccc1C(=O)NC(=O)Nc1ccc(Oc2ncc(Br)cn2)c(Cl)c1 [Compound No. 5] |  | 3 | 152 | ≥ 25 | 2000 (≈ 3.37 mM) | 1200 (≈ 2.02 mM) | 30 (≈ 0.0505 mM) |  |  |  |  |  | 
6 | Cc1cc(NC(=O)NC(=O)c2ccccc2NC(=O)CN)ccc1Oc1ncc(Br)cn1 [Compound No. 7, N-[4-(5-bromo-2-pyrimidinyloxy)-3-methylphenyl]-N'-(2-glycylamino)benzoylurea] | 50 | 105 | 143 | ≥ 25 | 3900 (≈ 7.81 mM) | > 2300 | 380 (≈ 0.761 mM) |  |  |  |  |  | 
7 | Nc1ccccc1C(=O)NC(=O)Nc1ccc(Oc2ncc(Br)cn2)c(Cl)c1 [compound 1, reference compound] |  |  |  |  | < 0.05 | < 0.05 | 0.06 (≈ 0.00013 mM) | 50 | 107 | Tox |  |  | 
8 | Cc1cc(NC(=O)NC(=O)c2ccccc2N)ccc1Oc1ncc(Cl)cn1 [compound 2, reference compound] |  |  |  |  |  | 0.8 (≈ 0.00201 mM) |  | 34 | 83 |  | 148 |  | 
9 | CCc1cc(NC(=O)NC(=O)c2ccccc2N)ccc1Oc1ncc(Br)cn1 [compound 3, reference compound] |  |  |  |  |  | < 0.1 |  | 26 | 26 |  | 99 |  | 
10 | Nc1ccccc1C(=O)NC(=O)Nc1ccc(Oc2ncc(Cl)cn2)c(C(F)(F)F)c1 [compound 4, reference compound] |  |  |  |  |  | 0.4 (≈ 0.000885 mM) |  | 71 |  | Tox |  | Tox | 
11 | NCC(=O)Nc1ccccc1C(=O)NC(=O)Nc1ccc(Oc2ncc(Cl)cn2)c(C(F)(F)F)c1 [compound 6] | 60 | 138 |  | ≥ 25 | 1900 (≈ 3.73 mM) | 1400 (≈ 2.75 mM) | 70 (≈ 0.138 mM) |  |  |  |  |  | 
12 | NCC(=O)NCC(=O)Nc1ccccc1C(=O)NC(=O)Nc1ccc(Oc2ncc(Br)cn2)c(Cl)c1 [compound 8] |  | 90 | 243 | ≥ 25 | 2100 (≈ 3.64 mM) | 1800 (≈ 3.12 mM) | 70 (≈ 0.121 mM) |  |  |  |  |  | 
13 | NCC(=O)Nc1ccccc1C(=O)NC(=O)Nc1ccc(Oc2ncc(Cl)cn2)c(Cl)c1 [compound 9] | 19 | 86 | 152 | ≥ 25 | 1500 (≈ 3.16 mM) | 1600 (≈ 3.37 mM) | 160 (≈ 0.337 mM) |  |  |  |  |  | 
14 | Cc1cc(NC(=O)NC(=O)c2ccccc2NC(=O)CN(C)C)ccc1Oc1ncc(Br)cn1 [compound 20, N-[4-(5-bromo-2-pyrimidinyloxy)-3-methylphenyl]-N'-[2-(N,N-dimethylglycyl)amino]benzoylurea] |  | 36 | 155 | ≥ 25 | 20000 (≈ 37.9 mM) | 19000 (≈ 36 mM) | 3000 (≈ 5.69 mM) |  |  |  |  |  | None
15 | Cc1cc(NC(=O)NC(=O)c2ccccc2NC(=O)[C@H](C)N)ccc1Oc1ncc(Br)cn1 [compound 49] | 14 | 76 | 190 | ≥ 25 | 9800 (≈ 19.1 mM) | 7600 (≈ 14.8 mM) | 1800 (≈ 3.51 mM) |  |  |  |  |  | None
